Experimental data published in ChEMBL document CHEMBL5608216, “Discovery of a novel Xanthone derivative P24 for anti-AD via targeting sTGFBR3” (Eur J Med Chem, 2024).

Tests used:
BV-2 = test: Antiinflammatory activity in LPS-induced mouse BV-2 cells assessed as inhibition of NO production incubated for 24 hrs by Griess reagent based analysis; format: functional, cell-based; conditions: BV-2, 24 h
[1] = Cytotoxicity against LPS-induced mouse BV-2 cells assessed as survival rate at 10 uM measured after 24 hrs by MTT assay relative to control; format: toxicity, cell-based; conditions: LPS-induced BV-2 cells, read-out: Survival
[2] = Permeability of compound measured after 18 hrs by UV spectrophotometer based PAMPA; format: ADME

CN1CCN(c2ccc(NC(=O)COc3ccc4c(=O)c5ccccc5oc4c3)nc2)CC1
IC50 (BV-2): 1190 nM | viability at 24 h, 10 µM [1]: 86%

O=C(COc1ccc2c(=O)c3ccccc3oc2c1)NCc1ccc(F)cc1
IC50 (BV-2): 2020 nM | viability at 24 h, 10 µM [1]: 82.8%

O=C(COc1ccc2c(=O)c3ccccc3oc2c1)NCCc1ccccc1
IC50 (BV-2): 2570 nM | viability at 24 h, 10 µM [1]: 96.4%

Cc1ccc(CCNC(=O)COc2ccc3c(=O)c4ccccc4oc3c2)cc1
IC50 (BV-2): 3420 nM | viability at 24 h, 10 µM [1]: 47.9%

O=C(COc1ccc2c(=O)c3ccccc3oc2c1)NCc1ccc(Cl)cc1
IC50 (BV-2): 1230 nM | viability at 24 h, 10 µM [1]: 40.4%

O=C(COc1ccc2c(=O)c3ccccc3oc2c1)N(Cc1ccccc1)Cc1ccccc1
IC50 (BV-2): 6380 nM | viability at 24 h, 10 µM [1]: 99.7%

O=C(COc1ccc2c(=O)c3ccccc3oc2c1)NC[C@@H](O)c1ccccc1
IC50 (BV-2): 12500 nM | viability at 24 h, 10 µM [1]: 100%

O=C(COc1ccc2c(=O)c3ccccc3oc2c1)NC1CCOCC1
IC50 (BV-2): 3900 nM | viability at 24 h, 10 µM [1]: 80.6%

O=c1c2ccccc2oc2ccccc12 [XANTHONE]
IC50 (BV-2): 21200 nM | viability at 24 h, 10 µM [1]: 95.4%

C[C@]12CCC(=O)C=C1CC[C@@H]1[C@@H]2CC[C@]2(C)C(=O)CC[C@@H]12 [ANDROSTENEDIONE]
permeability [2]: 87.28%

O=C(COc1ccc2c(=O)c3ccccc3oc2c1)NCc1ccccn1
IC50 (BV-2): 2430 nM | viability at 24 h, 10 µM [1]: 69.1%

O=C(COc1ccc2c(=O)c3ccccc3oc2c1)NCCc1ccc(Cl)c(Cl)c1
IC50 (BV-2): 3280 nM | viability at 24 h, 10 µM [1]: 41.1%

O=C(COc1ccc2c(=O)c3ccccc3oc2c1)NCc1ccccc1
IC50 (BV-2): 2410 nM | viability at 24 h, 10 µM [1]: 79%

O=C(COc1ccc2c(=O)c3ccccc3oc2c1)NCCc1ccc(Cl)cc1
IC50 (BV-2): 1530 nM | viability at 24 h, 10 µM [1]: 38.5%

O=C(COc1ccc2c(=O)c3ccccc3oc2c1)NCc1ccncc1
IC50 (BV-2): 6380 nM | viability at 24 h, 10 µM [1]: 102%
